Reference: PubChem BioAssay (NCI)
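1) Cells in 96-well plates. 2) Compound, 48 h, 5 concentrations. 3) Linear interpolation between surrounding doses. 4) Unreached endpoint = highest concentration. TGI denotes the concentration required for complete inhibition of growth.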

Legend:
Experiment in all cases: NCI tumour cell line growth inhibition, 48 h
[1] = tested on: COLO 205 colon
[2] = tested on: MALME-3M melanoma
[3] = tested on: NCI-H522 lung
[4] = tested on: NCI-H23 lung
[5] = tested on: OVCAR-5 ovarian
[6] = tested on: SK-MEL-28 melanoma
[7] = tested on: SN12C renal
[8] = tested on: CAKI-1 renal
[9] = tested on: HCC-2998 colon
[10] = tested on: NCI-H460 lung
[11] = tested on: SF-268 CNS
[12] = tested on: OVCAR-3 ovarian
[13] = tested on: M19-MEL melanoma
[14] = tested on: XF 498 CNS
[15] = tested on: UACC-257 melanoma
[16] = tested on: M14 melanoma
[17] = tested on: OVCAR-8 ovarian
[18] = tested on: 786-0 renal
[19] = tested on: SK-OV-3 ovarian
[20] = tested on: LXFL 529 NSCLC
[21] = tested on: LOX IMVI melanoma
[22] = tested on: HOP-62 NSCLC
[23] = tested on: U251 CNS
[24] = tested on: SF-295 CNS
[25] = tested on: SF-539 CNS
[26] = tested on: SK-MEL-2 melanoma
[27] = tested on: SK-MEL-5 melanoma
[28] = tested on: SNB-75 CNS
[29] = tested on: TK-10 renal
[30] = tested on: HT29 colon
[31] = tested on: SW-620 colon
[32] = tested on: OVCAR-4 ovarian
[33] = tested on: RXF-631 renal
[34] = tested on: A549 NSCLC
[35] = tested on: HCT-116 colon
[36] = tested on: DLD-1 colon
[37] = tested on: ACHN renal
[38] = tested on: IGROV1 ovarian
[39] = tested on: HOP-18 NSCLC
[40] = tested on: K-562 leukemia
[41] = tested on: RPMI-8226 leukemia
[42] = tested on: A498 renal
[43] = tested on: HL-60(TB) leukemia
[44] = tested on: SNB-19 CNS
[45] = tested on: EKVX NSCLC
[46] = tested on: HOP-92 NSCLC
[47] = tested on: DMS 273 small cell lung
[48] = tested on: CCRF-CEM leukemia
[49] = tested on: SR leukemia
[50] = tested on: SNB-78 CNS
[51] = tested on: MOLT-4 leukemia
[52] = tested on: UO-31 renal
[53] = tested on: KM12 colon
[54] = tested on: RXF 393 renal
[55] = tested on: HCT-15 colon
[56] = tested on: NCI-H226 lung

**Q.** For `CCC1CN2CCc3cc(OC)c(OC)cc3C2CC1CC1c2cc(OC)c(OC)cc2CCN1C(=O)C1CCCN1` (stereo unspecified), which TGI [1] is on record?
**A.** 25.7 µM

**Q.** And the TGI [2]?
**A.** 37.3 µM

**Q.** And the TGI [3]?
**A.** 35.3 µM

**Q.** And the TGI [4]?
**A.** > 100 µM

**Q.** And the TGI [5]?
**A.** > 100 µM

**Q.** And the TGI [6]?
**A.** 50.9 µM

**Q.** And the TGI [7]?
**A.** > 100 µM

**Q.** What about the TGI [8] of the same molecule?
**A.** > 100 µM

**Q.** And the TGI [9]?
**A.** 58.6 µM

**Q.** What about the TGI [10] of the same molecule?
**A.** 74.8 µM

**Q.** What about the TGI [11] of the same molecule?
**A.** 65.2 µM

**Q.** And the TGI [12]?
**A.** 90 µM

**Q.** And the TGI [13]?
**A.** 36.6 µM

**Q.** What about the TGI [14] of the same molecule?
**A.** 39.2 µM

**Q.** What about the TGI [15] of the same molecule?
**A.** 41 µM

**Q.** What about the TGI [16] of the same molecule?
**A.** 27.6 µM

**Q.** And the TGI [17]?
**A.** > 100 µM

**Q.** What about the TGI [18] of the same molecule?
**A.** 54.8 µM

**Q.** What about the TGI [19] of the same molecule?
**A.** 98.5 µM

**Q.** And the TGI [20]?
**A.** 64.4 µM

**Q.** What about the TGI [21] of the same molecule?
**A.** 72.4 µM

**Q.** What about the TGI [22] of the same molecule?
**A.** 71.2 µM

**Q.** What about the TGI [23] of the same molecule?
**A.** 69.4 µM

**Q.** What about the TGI [24] of the same molecule?
**A.** > 100 µM

**Q.** And the TGI [25]?
**A.** 37.8 µM

**Q.** What about the TGI [26] of the same molecule?
**A.** 68.7 µM

**Q.** And the TGI [27]?
**A.** 31.3 µM

**Q.** What about the TGI [28] of the same molecule?
**A.** > 100 µM

**Q.** What about the TGI [29] of the same molecule?
**A.** > 100 µM

**Q.** And the TGI [30]?
**A.** > 100 µM

**Q.** And the TGI [31]?
**A.** > 100 µM

**Q.** And the TGI [32]?
**A.** 87.9 µM

**Q.** And the TGI [33]?
**A.** 90.8 µM

**Q.** And the TGI [34]?
**A.** 78.1 µM

**Q.** And the TGI [35]?
**A.** 55 µM

**Q.** And the TGI [36]?
**A.** 77.4 µM

**Q.** What about the TGI [37] of the same molecule?
**A.** > 100 µM

**Q.** What about the TGI [38] of the same molecule?
**A.** 71.7 µM

**Q.** What about the TGI [39] of the same molecule?
**A.** > 100 µM

**Q.** What about the TGI [40] of the same molecule?
**A.** 51.4 µM

**Q.** What about the TGI [41] of the same molecule?
**A.** > 100 µM

**Q.** And the TGI [42]?
**A.** 56.6 µM

**Q.** What about the TGI [43] of the same molecule?
**A.** 43.9 µM

**Q.** And the TGI [44]?
**A.** > 100 µM

**Q.** And the TGI [45]?
**A.** > 100 µM

**Q.** And the TGI [46]?
**A.** > 100 µM

**Q.** What about the TGI [47] of the same molecule?
**A.** > 100 µM

**Q.** What about the TGI [48] of the same molecule?
**A.** 64.8 µM

**Q.** And the TGI [49]?
**A.** 85.1 µM

**Q.** What about the TGI [50] of the same molecule?
**A.** > 100 µM

**Q.** And the TGI [51]?
**A.** 85.1 µM

**Q.** And the TGI [52]?
**A.** 47.4 µM

**Q.** And the TGI [53]?
**A.** > 100 µM

**Q.** What about the TGI [54] of the same molecule?
**A.** 73.8 µM

**Q.** What about the TGI [55] of the same molecule?
**A.** > 100 µM

**Q.** And the TGI [56]?
**A.** 96.7 µM
